According to patent US10106542B2, “Substituted 6,7-dihydropyrazolo[1,5-a]pyrazines as negative allosteric modulators of mGluR2 receptors” (Janssen Pharmaceutica NV, priority 2013, dated 2018):

Key:
rats = test: Reversal of the effect of the mGluR2 PAM JNJ-42153605 on scopolamine-induced hyperlocomotion; format: in vivo; details: Rattus norvegicus, 1 h, Route PO, test compound 60 min before recording, criterion total distance >1500 cm
Procedure: 2) Reversal of the Effect of the mGluR2 PAM JNJ-42153605 on Scopolamine-Induced Hyperlocomotion Apparatus
Motor activity was measured in microprocessor-based motor activity arenas (closed gray PVC cylinders with a height of 39 cm and a diameter of 31 cm). Each arena was placed on an infrared LED (8×8 LEDs) lit box (white PVC squared box; 40×40 cm^2; height 12.5 cm. An infrared-sensitive tube camera and a white light source were mounted to the ceiling above the observation chamber to track the animal. The total distance traveled (cm) was recorded and analyzed using the Noldus Ethovision XT Video Tracking System (Version 7.0.418; Noldus, Wageningen, The Netherlands). The intensity of the light within the activity cages (measured in the centre at the level of the floor) ranged between 4 and 8 LUX.
The rats were pretreated with test compound or vehicle at 60 min before the start of the activity recordings and placed into individual cages. The rats were challenged with JNJ-42153605 (3-(cyclopropylmethyl)-7-(4-phenylpiperidin-1-yl)-8-(trifluoromethyl)[1,2,4]triazolo[4,3-a]pyridine; WO2010/130424; Cid et al. J. Med. Chem. 2012, 55, 8770-8789) (20 mg/kg, i.v.) 30 min before the start of the activity recording combined with scopolamine (0.16 mg/kg, i.v.) just before the start of the activity measurements Immediately after the injection of scopolamine, the rats were placed into the activity monitors and total distance travelled over the first 30 min was measured.
Animals receiving the combination of JNJ-42153605 and scopolamine (n=433) almost always travelled a distance of less than 1500 cm (<1500 cm) (only 2.5% of the control rats travelled a distance of more than 1500 cm (>1500 cm)). On the other hand, animals challenged with scopolamine alone (n=215) always travelled a total distance of more than 1500 cm (>1500 cm) and almost always (in 95.8% of the rats) a distance of more than 4400 cm (>4400 cm). […] For reversal of the inhibitory effect of JNJ-42153605 on the scopolamine-induced hyperlocomotion, two all-or-none criteria were adopted: (1) reversal: total distance >1500 cm; (2) normalization: total distance >4400 cm.

Male Wiga Wistar rats = test: Reversal of LY-404039-induced decrease of palpebral opening in apomorphine-challenged rats; format: in vivo; details: Rattus norvegicus, reversal of LY-404039-induced decrease of palpebral opening (cumulative score >26) in apomorphine challenged rats
Procedure: 6) Reversal of LY-404039-Induced Decrease of Palpebral Opening in Apomorphine-Challenged Rats.
Male Wiga Wistar rats (Crl:WI; Charles River Germany; 220±40 g) were housed under standard laboratory conditions (21±2° C.; 50-65% relative humidity; light-dark cycle set at 12 h; lights on at 6.00 h) and fasted overnight prior to the start of the experiments (tap water remained available ad libitum). During the test period, they were housed in individual cages. The local Ethical Committee approved all studies in compliance with the Declaration of Helsinki. Palpebral opening was scored every 5 min over the first hour after injection of apomorphine (1.0 mg/kg, i.v.) in animals either pretreated or not pretreated with LY-404039 (2.5 mg/kg, s.c.) at 1 h prior to the apomorphine injection. The animals were also pretreated with test compound or solvent at a predefined interval before apomorphine challenge. The score system was: (5) exophthalmos, (4) wide open, (3) open for three-quarters, (2) half open, (1) open for one-quarter, (0) closed. The scores for palpebral opening were cumulated over the 60-min observation period. A cumulative palpebral opening score >26 was selected for drug-induced reversal of the LY-404039-induced decrease of palpebral opening (occurrence in 3.2% of control animals pretreated with LY-404039 (n=154) versus in 99.5% of control rats not pretreated with LY-404039 (n=6335)).
In animals receiving apomorphine alone the median palpebral opening is 43 whereas in animals receiving apomorphine and LY-404039, the median palpebral opening is 17.

human mGlu2 receptor = target: T1, human mGlu2 receptor (Homo sapiens, UniProt Q14416); test: [35S]GTPγS binding assay (mGluR2 negative allosteric modulation); format: biochemical; details: for IC50: membranes from CHO cells transfected with human mGlu2 receptor, glutamate 60 μM, pIC50 = −log IC50 (M), read-out: GTPγS - hmGluR2 anGT pIC50 (converted); for Emax: relative maximal effect: maximal % inhibition relative to the control glutamate response, read-out: GTPγS - hmGluR2 anGT Emax
T1 construct: expressed in transfected cells; host or cells: CHO cells (membrane preparation)
T1 sequence (Q14416 19-872): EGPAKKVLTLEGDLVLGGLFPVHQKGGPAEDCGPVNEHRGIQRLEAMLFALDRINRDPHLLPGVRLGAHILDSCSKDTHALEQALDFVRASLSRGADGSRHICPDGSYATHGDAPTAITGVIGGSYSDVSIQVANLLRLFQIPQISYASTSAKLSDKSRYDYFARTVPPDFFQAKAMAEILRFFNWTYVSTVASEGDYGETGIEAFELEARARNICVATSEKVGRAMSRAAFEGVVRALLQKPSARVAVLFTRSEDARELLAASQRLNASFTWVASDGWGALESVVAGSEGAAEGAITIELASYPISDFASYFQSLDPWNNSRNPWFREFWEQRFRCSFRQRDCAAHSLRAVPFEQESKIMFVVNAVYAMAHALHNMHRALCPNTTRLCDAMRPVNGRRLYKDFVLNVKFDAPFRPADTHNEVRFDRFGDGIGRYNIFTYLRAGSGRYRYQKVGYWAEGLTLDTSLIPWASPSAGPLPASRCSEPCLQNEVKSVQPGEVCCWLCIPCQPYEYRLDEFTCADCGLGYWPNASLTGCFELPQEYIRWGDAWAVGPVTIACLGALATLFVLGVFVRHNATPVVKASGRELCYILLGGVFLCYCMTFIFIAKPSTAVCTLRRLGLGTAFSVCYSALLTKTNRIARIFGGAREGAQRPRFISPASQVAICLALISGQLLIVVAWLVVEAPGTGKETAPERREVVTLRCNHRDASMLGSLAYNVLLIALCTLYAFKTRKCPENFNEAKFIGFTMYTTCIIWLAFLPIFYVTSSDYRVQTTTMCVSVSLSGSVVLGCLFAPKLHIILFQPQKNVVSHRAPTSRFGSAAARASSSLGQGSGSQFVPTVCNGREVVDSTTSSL
Method in brief: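 Membranes from butyrate-stimulated CHO cells expressing human mGlu2; 7 μg protein in HEPES pH 7.4, 100 mM NaCl, 3 mM MgCl2, 10 μM GDP, 10 μg/ml saponin. Compound tested against EC80-equivalent glutamate; 0.1 nM [35S]GTPγS, 30 min, 30 °C; filtration, scintillation counting. Data as % of control glutamate response.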

Wiga rats = test: Reserpine interaction test in rats; format: in vivo, rat; details: for ED50: Rattus norvegicus, po, Time 60, reserpine 10 mg/kg SC, Wiga rats, read-out: ED50, reversal of reserpine-induced ptosis
Procedure: 4) Reserpine Interaction Test in Rats
It was investigated to what extent the mydriatic action of test compounds was sufficient to counteract the miosis induced by the monoamines-depleting agent reserpine (10 mg/kg; SC) in Wiga rats.
The effects are illustrated in FIG. 3. […] The reference mGlu2 NAMs RO-4995819 (40 mg/kg, p.o.), RO-4491533 (40 mg/kg, p.o.; 10 mg/kg, s.c.) and [CAS 579473-69-1]

| IC50 (human mGlu2 receptor) | Emax (human mGlu2 receptor) | melting point | SMILES | ED50 (rats) | ED50 (Male Wiga Wistar rats; Route PO) | ED50 (Wiga rats) | ED50 (Male Wiga Wistar rats; Route SC) | interactions with reserpine (mydriasis, reversal of ptosis, miosis, sedation) (Wiga rats; 40 mg/kg, p.o.) |
| --- | --- | --- | --- | --- | --- | --- | --- | --- |
| 2.63e-08 M | 103% | – | Cc1cc(-c2cnn3c2C(=O)N(c2ccc(Cl)cc2)C[C@@H]3C)ccn1 [compound 15] | 1.26 mg/kg | 11.2 mg/kg | – | – | – |
| 9.55e-07 M | 103% | – | COc1ccc(N2C[C@H](C)n3ncc(-c4ccnc(C)c4)c3C2=O)cc1 [compound 38] | – | – | 5 mg/kg | – | – |
| 6.03e-07 M | 100% | – | COc1ccc(N2C[C@H](C)n3ncc(-c4ccnc(C)c4)c3C2=O)cc1F [compound 35] | – | – | > 10 mg/kg | – | – |
| 5.62e-06 M | 100% | 149.7 °C | Cc1cc(-c2cnn3c2C(=O)N(c2cccc(C(C)O)c2)C[C@@H]3C)ccn1 (some centres unmarked) [compound 148] | – | – | 1.99 mg/kg | – | – |
| 3.55e-06 M | 95% | 166.9 °C | COc1ccc(N2C[C@H](C)n3ncc(-c4ccnc(C)c4)c3C2=O)cc1OC [compound 41] | – | – | 3.15 mg/kg | – | – |
| 7.94e-07 M | 104% | – | CCOc1cccc(N2C[C@H](C)n3ncc(-c4ccnc(C)c4)c3C2=O)c1 [compound 83] | – | – | 5 mg/kg | – | – |
| 5.62e-07 M | 100% | > 300 °C | COc1c(C)cc(N2C[C@H](C)n3ncc(-c4ccnc(C)c4)c3C2=O)cc1C [compound 34] | – | – | 0.8 mg/kg | – | – |
| 1.05e-06 M | 105% | – | Cc1cc(-c2cnn3c2C(=O)N(c2ccc(Cl)cc2C)C[C@@H]3C)ccn1 [compound 172] | – | – | – | > 40 mg/kg | – |
| 7.59e-07 M | 105% | – | Cc1cc(-c2cnn3c2C(=O)N(c2ccc(Cl)cc2Cl)C[C@@H]3C)ccn1 [compound 167] | – | > 40 mg/kg | – | – | – |

More lines, now with the values behind:

| SMILES | IC50 (human mGlu2 receptor) | Emax (human mGlu2 receptor) | melting point | ED50 (rats) | ED50 (Male Wiga Wistar rats; Route PO) | ED50 (Wiga rats) | ED50 (Male Wiga Wistar rats; Route SC) | interactions with reserpine (mydriasis, reversal of ptosis, miosis, sedation) (Wiga rats; 40 mg/kg, p.o.) |
| --- | --- | --- | --- | --- | --- | --- | --- | --- |
| CCNc1cc(-c2cnn3c2C(=O)N(c2ccc(C(F)(F)F)cc2)C[C@@H]3C)ccn1 [compound 44, (7S)-3-[2-(Ethylamino)-4-pyridyl]-7-methyl-5-[4-(trifluoromethyl)phenyl]-6,7-dihydropyrazolo[1,5-a]pyrazin-4-one] | 6.17e-09 M | 105% | > 300 °C | ≥ 2.5 mg/kg | 0.5 mg/kg | – | – | – |
| Cc1cc(-c2cnn3c2C(=O)N(c2ccc(C(F)(F)F)cc2)C[C@@H]3C)cc[n+]1[O-] [compound 140, (7S)-7-Methyl-3-(2-methyl-1-oxido-pyridin-1-ium-4-yl)-5-[4-(trifluoromethyl)phenyl]-6,7-dihydropyrazolo[1,5-a]pyrazin-4-one] | 5.13e-07 M | 104% | 231.5 °C | – | 1.99 mg/kg | – | – | – |
| Cc1cc(-c2cnn3c2C(=O)N(c2ccc(C(F)(F)F)c(C)c2)C[C@@H]3C)ccn1 [compound 5] | – | – | – | ≥ 2.5 mg/kg | > 10 mg/kg | – | – | – |
| COCc1cc(-c2cnn3c2C(=O)N(c2ccc(C(F)(F)F)cc2)C[C@@H]3C)ccn1 [compound 22] | 6.92e-08 M | 104% | – | – | – | 0.13 mg/kg | – | – |
| CCc1cc(-c2cnn3c2C(=O)N(c2ccc(C(F)(F)F)cc2)C[C@@H]3C)ccn1 [compound 46, (7S)-3-(2-Ethyl-4-pyridyl)-7-methyl-5-[4-(trifluoromethyl)phenyl]-6,7-dihydropyrazolo[1,5-a]pyrazin-4-one] | 6.31e-09 M | 105% | 124.6 °C | ≥ 2.5 mg/kg | 0.32 mg/kg | – | – | – |
| Cc1cc(-c2cnn3c2C(=O)N(c2cccc(OC(C)C)c2)C[C@@H]3C)ccn1 [compound 79] | 5.13e-07 M | 104% | – | – | – | 5 mg/kg | – | – |
| Cc1ccc(-c2cnn3c2C(=O)N(c2ccc(C(F)(F)F)cc2)C[C@@H]3C)cn1 [compound 36] | 8.32e-07 M | 100% | 128.2 °C | – | – | 5 mg/kg | – | – |
| CCOc1cc(N2CCn3ncc(-c4ccnc(C)c4)c3C2=O)ccc1C(F)(F)F [compound 33] | 5.75e-07 M | 99% | – | – | > 2.5 mg/kg | 0.5 mg/kg | – | – |
| Cc1cc(-c2cnn3c2C(=O)N(c2cc(F)cc(F)c2)C[C@@H]3C)ccn1 [compound 82] | 6.31e-07 M | 101% | – | – | – | 5 mg/kg | – | – |
| CCOc1cc(N2C[C@H](C)n3ncc(-c4ccnc(C)c4)c3C2=O)ccc1C(F)(F)F [compound 8] | 5.89e-09 M | 105% | – | 5 mg/kg | 5 mg/kg | – | – | – |
| CNc1cc(-c2cnn3c2C(=O)N(c2ccc(C(F)(F)F)cc2)C[C@@H]3C)ccn1 [compound 147, (7S)-7-Methyl-3-[2-(methylamino)-4-pyridyl]-5-[4-(trifluoromethyl)phenyl]-6,7-dihydropyrazolo[1,5-a]pyrazin-4-one] | 5.75e-09 M | 106% | – | 0.5 mg/kg | 1.26 mg/kg | – | – | – |
| Nc1ccc(C#Cc2cnn3c(C(F)(F)F)cc(-c4ccc(C(F)(F)F)cc4)nc23)cn1 [RO-4995819, reference compound] | – | – | – | – | – | – | – | devoid of these interactions with reserpine |
| Cc1cc(-c2cnn3c2C(=O)N(c2ccc(C(F)(F)F)cc2)CC3)ccn1 [compound 40] | 1.48e-06 M | 105% | 137 °C | – | – | 0.32 mg/kg | – | – |
| CCOc1cc(N2C[C@@H](C)n3ncc(-c4ccnc(C)c4)c3C2=O)ccc1C(F)(F)F [compound 31] | 4.37e-07 M | 107% | – | – | ≥ 10 mg/kg | 0.79 mg/kg | – | – |
| Cc1cncc(-c2cnn3c2C(=O)N(c2ccc(C(F)(F)F)cc2)C[C@@H]3C)c1 [compound 24] | – | – | – | – | – | ≥ 10 mg/kg | – | – |
| COc1cc(-c2cnn3c2C(=O)N(c2ccc(C(F)(F)F)cc2)C[C@@H]3C)ccn1 [compound 45, (7S)-3-(2-Methoxy-4-pyridyl)-7-methyl-5-[4-(trifluoromethyl)phenyl]-6,7-dihydropyrazolo[1,5-a]pyrazin-4-one] | – | – | – | 1.26 mg/kg | 0.79 mg/kg | – | – | – |
| CCOc1ccc(N2C[C@H](C)n3ncc(-c4ccnc(C)c4)c3C2=O)cc1.Cl [compound 81, (7S)-5-(4-Ethoxyphenyl)-7-methyl-3-(2-methyl-4-pyridyl)-6,7-dihydropyrazolo[1,5-a]pyrazin-4-one hydrochloride salt] | 5.37e-07 M | 103% | – | – | – | 5 mg/kg | – | – |
| CCOc1nc(N2C[C@H](C)n3ncc(-c4ccnc(C)c4)c3C2=O)ccc1C(F)(F)F (single isomer, unassigned) [compound 200] | 5.89e-09 M | 105% | 122.3 °C | 3.15 mg/kg | – | 0.13 mg/kg | – | – |
